Consider one compound from US9132104B2, “Fortification of nutritional products with olive extracts containing hydroxytyrosol and hydroxytyrosol fortified nutritional products” (PROBELTE PHARMA S.A., priority 2007, dated 2015).

The test system of this experiment is male Sprage Dawley rats. Briefly: L-NAME induced hypertension model, arterial blood pressure by tail-cuff method (Example 11). The format is in vivo. Conditions: rat, L-NAME 40 mg/Kg in drinking water, oral gavage 100 mg/Kg (group 6, positive control).

Method: Thirty-six male Sprage Dawley rats (weight aprox. 200 at the beginning of the experiment) were obtained from Harlan Interfauna Iberica SA (Barcelona, Spain) and maintained during all the experiment in the installations of the animalary service at the University of Murcia. The animals were randomly distributed into six experimental groups of 6 rats each one, housed under standard conditions of lighting (day/night cycles of 12 h), temperature (22±2° C.) and humidity (60%).
During the setting period and the experimental periods, rats were feed on a solid standard diet for rats (Panlab). Drinking water and food were available ad libitum. After an setting period of 7 days, treatments according the experimental design were started.
In order to determine the effect of fortified extra virgin olive oil (evoo added with the olive extract according to the present invention) N-nitro-L-arginine-methylester (L-NAME) induced hypertension model was used.
Arterial blood pressure was measured with a periodicity according the above cronogramme, by the tail-cuff method. Before the measurement, rats were kept at 37° C. for 10 min to make the pulsations of the tail artery detectable. […] The arterial blood pressure measurements were performed at the same time of the day in order to avoid any influence of the circadian cycle.

With `C[C@H](CS)C(=O)N1CCC[C@H]1C(=O)O` [Captopril], the systolic blood pressure entry was “significant reduction of the blood pressure values”.
